Data on one compound can be found in ChEMBL document CHEMBL4177585, “Discovery of berberine based derivatives as anti-influenza agent through blocking of neuraminidase” (Bioorg Med Chem, 2017).

Activity calls are given as the source filed them. The calls are words filed in the database; no cut-off is given here.

The test system of the first data set is Influenza B virus. As to the kind of experiment: Antiviral activity against Influenza B virus (B/Maryland/1/59) infected in MDCK cells assessed as reduction in virus-induced cytopathogenicity incubated for 48 hrs by SRB assay. Format: functional, organism-based.
Conditions: not given
`COc1cc(CN2CCN(c3ccccc3Cl)CC2)c2cc3[n+](cc2c1O)CCc1cc2c(cc1-3)OCO2.[Cl-]`: the IC50 was 4.17 µg/mL.

In a further data set the test system is Influenza A virus. The data set is described as follows: Antiviral activity against Influenza A virus (A/Puerto Rico/8/1934(H1N1)) infected in MDCK cells assessed as reduction in virus-induced cytopathogenicity at 1 ug/ml pre-incubated for 1 hr with virus before virus infection of cells and measured after 48 hrs by SRB assay. Format: functional, organism-based.
Conditions: not given
Turning to `COc1cc(CN2CCN(c3ccccc3Cl)CC2)c2cc3[n+](cc2c1O)CCc1cc2c(cc1-3)OCO2.[Cl-]`, the outcome was Active.

Another data set concerns Influenza B virus. As to the kind of experiment: Antiviral activity against Influenza B virus (B/Lee/40) infected in MDCK cells assessed as reduction in virus-induced cytopathogenicity incubated for 48 hrs by SRB assay. In kind it is functional, organism-based. The following applies: B/Lee/1940, MDCK.
Turning to `COc1cc(CN2CCN(c3ccccc3Cl)CC2)c2cc3[n+](cc2c1O)CCc1cc2c(cc1-3)OCO2.[Cl-]`, the IC50 was determined as 6.33 µg/mL.

In another data set the test system is Influenza A virus. The data set is described as follows: Antiviral activity against Influenza A virus (A/Puerto Rico/8/1934(H1N1)) infected in MDCK cells assessed as reduction in virus-induced cytopathogenicity at 1 ug/ml treated before virus infection and measured after 48 hrs by SRB assay relative to untreated control. In kind it is functional.
Conditions: not given
Consider `COc1cc(CN2CCN(c3ccccc3Cl)CC2)c2cc3[n+](cc2c1O)CCc1cc2c(cc1-3)OCO2.[Cl-]`, for which the inhibition at 1 µg/mL worked out at 22.1%.

A further data set relates to Influenza A virus. As to the kind of experiment: Antiviral activity against Influenza A virus (A/Victoria/3/1975(H3N2)) infected in MDCK cells assessed as reduction in virus-induced cytopathogenicity incubated for 48 hrs by SRB assay. Format: functional, organism-based.
Conditions: not given
As for `COc1cc(CN2CCN(c3ccccc3Cl)CC2)c2cc3[n+](cc2c1O)CCc1cc2c(cc1-3)OCO2.[Cl-]`, the IC50 was found to be 2.98 µg/mL.

The subject of the next data set is Influenza A virus. The data set is described as follows: Antiviral activity against Influenza A virus (A/Puerto Rico/8/1934(H1N1)) infected in MDCK cells assessed as reduction in virus-induced cytopathogenicity incubated for 48 hrs by SRB assay.
Conditions: not given
In kind it is functional, organism-based.
Take `COc1cc(CN2CCN(c3ccccc3Cl)CC2)c2cc3[n+](cc2c1O)CCc1cc2c(cc1-3)OCO2.[Cl-]`: the IC50 was found to be 1.63 µg/mL.

Tested on in the next data set: not listed separately
The data set is described as follows: Cytotoxicity against MDCK cells incubated for 48 hrs assessed as reduction in cell viability by SRB assay. In kind it is cell-based, Canis lupus familiaris. The following applies: dog.
For the compound `COc1cc(CN2CCN(c3ccccc3Cl)CC2)c2cc3[n+](cc2c1O)CCc1cc2c(cc1-3)OCO2.[Cl-]`, the CC50 at 48 h stood at 401 µg/mL.

The target of the next data set is Neuraminidase (Influenza A virus (A/Puerto Rico/8/1934(H1N1)), UniProt P03468). As to the kind of experiment: Inhibition of neuraminidase in influenza A virus (A/Puerto Rico/8/1934(H1N1)) pre-incubated for 30 mins before NA-Star substrate addition for 30 mins by luminescence based assay.
Neuraminidase (Influenza A virus (A/Puerto Rico/8/1934(H1N1)), UniProt P03468), sequence (P03468 whole entry): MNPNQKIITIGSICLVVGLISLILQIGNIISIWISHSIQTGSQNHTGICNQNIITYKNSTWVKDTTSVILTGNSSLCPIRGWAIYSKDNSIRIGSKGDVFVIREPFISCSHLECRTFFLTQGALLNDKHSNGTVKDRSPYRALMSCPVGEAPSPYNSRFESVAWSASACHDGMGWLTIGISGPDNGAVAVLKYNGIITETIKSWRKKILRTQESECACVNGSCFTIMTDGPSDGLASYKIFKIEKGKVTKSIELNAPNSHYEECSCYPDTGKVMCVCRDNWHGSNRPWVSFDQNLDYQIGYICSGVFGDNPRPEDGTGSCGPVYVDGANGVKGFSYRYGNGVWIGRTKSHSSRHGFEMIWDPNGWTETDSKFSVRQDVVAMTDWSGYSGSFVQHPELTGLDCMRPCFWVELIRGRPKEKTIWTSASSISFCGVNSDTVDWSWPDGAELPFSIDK
Conditions: not given
Consider `COc1cc(CN2CCN(c3ccccc3Cl)CC2)c2cc3[n+](cc2c1O)CCc1cc2c(cc1-3)OCO2.[Cl-]`, for which the affinity corresponds to a Ki of 2650 nM.
